Counter-ions that a name gives are not always drawn.
Key:
mouse gastric emptying = experiment: Promoting action of mouse gastric emptying; format: in vivo; conditions: 1 mg/kg, p.o.; 24-hour starved male ddy mice; control group (distilled water) defined as 100%
Procedure: Promoting action of mouse gastric emptying Male, ddy mice (body weight; 20 to 25 g) were used. 24-Hour after starvation 1 mg/kg test compounds dissolved in distilled water were orally administered (10 ml/kg). To the control group distilled water was orally administered (10 ml/kg). One hour later, a 2000 ppm phenol red solution (suspended in aqueous 0.5% carboxymethyl cellulose solution) was administered to each mouse (liquid dose; 0.05 ml/mouse). Then, 15 minutes later, the animals were killed to remove the stomachs. The phenol red retained in the stomachs was developed in 20 ml of a 2.75% trisodium phosphate solution, and analyzed with an absorption photometer at a wave length of 540 nm (A). Immediately after the phenol red solution was administered, the animals were killed to quantitatively determine the phenol red left in the stomachs (B). The difference in the amount of phenol red between A and B (B-A) was designated as gastric emptying. The gastric emptying of the test compounds were shown in Table 4 below, provided that the gastric emptying of the control group was defined as 100%.

dog gastric contraction = experiment: Promoting action of dog gastric contraction; format: in vivo, dog (adult mongrel); conditions: Canis lupus familiaris, iv, 0.5 h; i.v.; starved dogs; contraction for 30-minute interval after dose vs. IMC contraction immediately before; read-out: ED50 (dose developing 50% of the IMC contraction)
Procedure: 2) Promoting action of dog gastric contraction An implant-type strain-gauge transducer was sutured onto the serosa at the autrum (about 3 cm above pylorus) of adult mongrel dogs, weighed 11 to 15 kg, so as to determine the contraction of the circular muscle. Two weeks or more after the surgery, the gastric contraction was recorded for analysis with a data processing device. […] The dog was put to starvation for about 16 hours. Ten minutes after the completion of one IMC, a test compound was intravenously administered. The contraction for the 30-minute interval thereafter was represented as a percentage (%) to the IMC contraction having occurred immediately before, and the dose developing the 50% contraction was defined as ED50.

[1] = Acute toxicity, oral, mice; format: in vivo, mouse (male ddy); conditions: orally 1000 mg/kg; 3 mice per compound; observation 7 days
Procedure: For the test of acute toxicity, male ddy mice (body weight; 25 to 30 g, 3 mice for one test compound) were used. Test compound of Example 1 or 2 was orally administered at 1000 mg/kg.

[2] = biological target: T1, 5-HT3 (serotonin 3) receptor (Rattus norvegicus, UniProt P35563); experiment: 5-HT3 antagonistic action (antagonistic action of Bezold-Jarish reflex) in anesthetized rat; format: in vivo; conditions: iv, 5 min; i.v.; 5-HT 8 μg/kg i.v.; male Wistar rat under urethane anesthesia; read-out: ID50 (dose with inhibition ratio of 50%, Bezold-Jarish reflex)
T1 construct: from tissue; host or cells: living anaesthetized male Wistar rat (in vivo; endogenous receptor)
T1 sequence (P35563 24-483): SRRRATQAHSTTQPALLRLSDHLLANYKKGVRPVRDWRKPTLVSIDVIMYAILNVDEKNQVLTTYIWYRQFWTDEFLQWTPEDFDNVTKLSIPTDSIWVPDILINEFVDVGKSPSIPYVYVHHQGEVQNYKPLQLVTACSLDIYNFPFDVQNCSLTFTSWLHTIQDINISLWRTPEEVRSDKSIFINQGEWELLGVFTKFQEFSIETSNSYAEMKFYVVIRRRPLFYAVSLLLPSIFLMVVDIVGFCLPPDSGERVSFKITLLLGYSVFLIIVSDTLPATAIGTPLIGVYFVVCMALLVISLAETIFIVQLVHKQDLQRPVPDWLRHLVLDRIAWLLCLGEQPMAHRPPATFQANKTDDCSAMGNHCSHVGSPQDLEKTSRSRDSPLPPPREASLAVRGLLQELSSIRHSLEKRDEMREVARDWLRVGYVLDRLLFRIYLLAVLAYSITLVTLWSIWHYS
Procedure: 3) 5-HT3 antagonistic action (antagonistic action of Bezold-Jarish reflex)
According to the following method, the assessment of a compound in terms of the antagonistic action of Bezold-Jarish reflex triggered by 5-HT was carried out in a rat under anesthesia.
A male Wistar rat, weighed 300 to 400 g, was anesthetized with an intra-parenteral dose of 1.2 g/kg urethane, to monitor the heart rate triggered by electrocardiography. Five minutes after saline was intravenously administered (0.5 ml/kg) to the rat, 5-HT (8 μg/kg) dissolved in saline (0.5 ml/kg) was intravenously administered firstly, to measure the change in […] (A). To the same rat after 10 minutes interval, the test compound was intravenously administered, 5 minutes later 5-HT was administered in the same fashion, to measure the change in heart rate (B). Based on these values, the inhibition ratio of the test compound was calculated by the following formula:
inhibition ratio=(1-B/A)×100
Also, the dose with the inhibition ratio of 50% was defined as the ID50 of the test compound.

| SMILES | Promoting Action of Gastric Emptying (%) (mouse gastric emptying) | ED50 (dog gastric contraction) [µg/kg] | death (acute toxicity) [1] | ED50 [2] [µg/kg] |
| --- | --- | --- | --- | --- |
| CN1[C@@H]2CC[C@H]1C[C@@H](NC(=O)c1cn(C)c3ccsc3c1=O)C2 [Example 10, (endo)-N-(8-methyl-8-azabicyclo[3.2.1]oct-3-yl)-4,7-dihydro-4-methyl-7-oxothieno[3.2-b]pyridine-6-carboxamide] | 140 |  |  |  |
| COc1cc(N)c(Cl)cc1C(=O)NC1CCN2CCCC1C2 (stereo not drawn) [BRL-24924, (endo)-4-amino-5-chloro-2-methoxy-N-[1-azabicyclo-(3.3.1)-non-4-yl]-benzamide hydrochloride, reference compound] |  | 100 |  |  |
| O=C(N[C@H]1CN2CCC1CC2)c1cnc2ccsc2c1O [Example 2, R-N-(1-azabicyclo[2.2.2]oct-3-yl)-7-hydroxythieno[3.2-b]pyridine-6-carboxamide] | 185 | 5 | no death |  |
| O=C(NC1CN2CCC1CC2)c1cnc2ccsc2c1O (stereo not shown) [Example 1, N-(1-azabicyclo[2.2.2]oct-3-yl)-7-hydroxythieno[3.2-b]pyridine-6-carboxamide] | 147 | 10 | no death | 0.15 |
| Cc1csc2c(O)c(C(=O)NC3CN4CCC3CC4)cnc12 (stereo not shown) [Example 11] | 152 |  |  |  |
